Test results reported in PMC3933693, “Novel Inhibitors of Mitochondrial sn-Glycerol 3-phosphate Dehydrogenase” (PLoS ONE, 2014).

Legend:
[1] = target: T1, mGPDH (Rattus norvegicus, UniProt P35571); test: Superoxide/H2O2 production by mGPDH in isolated skeletal muscle mitochondria (Amplex UltraRed); format: biochemical; settings: for mGPDH (% change from DMSO): primary screen, ∼2.5 µM, average of duplicates, 16.7 mM glycerol phosphate, no added calcium; for IC50: Fig. 4 structure/activity microplate assay, 0.08–80 µM, estimated, means of two replicates, read-out: mGPDH H2O2 production IC50; for inhibition at 80 µM: read-out: mGPDH H2O2 production (% change at 80 μM)
T1 construct: Activity of mGPDH in frozen-thawed skeletal muscle mitochondria was measured; from tissue; host or cells: skeletal muscle mitochondria
T1 sequence (P35571 43-727): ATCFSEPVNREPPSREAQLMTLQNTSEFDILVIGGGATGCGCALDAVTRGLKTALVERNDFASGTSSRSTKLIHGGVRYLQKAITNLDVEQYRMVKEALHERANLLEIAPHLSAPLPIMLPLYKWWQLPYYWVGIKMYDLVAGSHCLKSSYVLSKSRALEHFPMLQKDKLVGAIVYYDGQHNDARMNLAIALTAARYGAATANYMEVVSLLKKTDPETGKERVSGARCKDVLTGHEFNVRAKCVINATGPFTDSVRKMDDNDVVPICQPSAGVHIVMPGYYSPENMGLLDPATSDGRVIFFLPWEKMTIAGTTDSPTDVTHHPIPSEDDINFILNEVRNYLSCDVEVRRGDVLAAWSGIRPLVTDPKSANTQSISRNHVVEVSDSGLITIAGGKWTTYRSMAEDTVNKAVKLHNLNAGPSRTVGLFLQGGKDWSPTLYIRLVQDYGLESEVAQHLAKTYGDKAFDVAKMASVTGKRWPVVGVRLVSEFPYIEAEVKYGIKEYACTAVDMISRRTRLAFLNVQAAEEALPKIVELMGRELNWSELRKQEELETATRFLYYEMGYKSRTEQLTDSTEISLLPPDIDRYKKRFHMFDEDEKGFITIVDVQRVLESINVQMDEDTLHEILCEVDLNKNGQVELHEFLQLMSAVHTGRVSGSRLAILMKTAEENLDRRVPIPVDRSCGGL

[2] = target: T2, outer ubiquinone-binding site of complex III (site IIIQo) (Rattus norvegicus, UniProt P00159+P20788); test: Site-specific H2O2 production from site IIIQo in skeletal muscle mitochondria; format: biochemical; settings: primary screen, ∼2.5 µM, average of duplicates; 5 mM succinate
T2 construct: from tissue; host or cells: skeletal muscle mitochondria
Experimental: (§1) Superoxide was measured as H2O2 after dismutation by endogenous or exogenous superoxide dismutase. Rates of total superoxide/H2O2 production were measured fluorimetrically using Amplex UltraRed in the presence of exogenous superoxide dismutase and horseradish peroxidase in a Varian Cary Eclipse fluorimeter as previously described. Rates of production from specific sites were determined as previously described using the following eight conditions: flavin mononucleotide site of complex I (site IF) plus matrix NAD-linked dehydrogenases (collectively "site IF/DH") with 5 mM glutamate, 5 mM malate, and 4 µM rotenone; ubiquinone-binding site of complex I (site IQ) with either 0.5 or 5 mM succinate; flavin site of complex II (site IIF) with either 15 µM palmitoylcarnitine, 2.5 µM antimycin A, and 2 µM myxothiazol or 0.5 mM succinate, 4 µM rotenone, 2.5 µM antimycin A, and 2 µM myxothiazol, [31]; mGPDH with 1.7 mM glycerol phosphate, 4 µM rotenone, 2.5 µM antimycin A, 2 µM myxothiazol, 1 mM malonate, and 250 nM free calcium; outer ubiquinone-binding site of complex III (site IIIQo) with either 0.5 or 5 mM succinate, 4 µM rotenone and 2.5 µM antimycin A [32]. Candidate small-molecule inhibitors were added prior to the start of measurements and H2O2 calibration curves were performed in the presence of tested compounds.
(§2) 3,200 compounds were tested initially at 2.5 µM (0.025% DMSO final) in duplicate on different plates against a panel of five distinct assays of site-specific superoxide/H2O2 production as described in the previous section with minor changes. […] Endpoint fluorescence was measured on a Perkin Elmer Victor V3 fluorescent plate reader. The fluorescence intensity of each well was normalized as % change from the average of eight DMSO controls on the same plate. Duplicate wells of each of four modulators of mitochondrial metabolism known to inhibit specific sites of superoxide/H2O2 production were included on each plate as positive controls and the resulting fluorescence levels set as −100% change from DMSO controls. Known inhibitors included 20 mM aspartate (for site IF/DH), 1 µM FCCP (for site IQ), 10 mM malonate (for site IIF), and 2 µM myxothiazol (for site IIIQo). The background fluorescence of the FCCP wells in the site IQ assay was used to normalize mGPDH plates run in parallel. To minimize position-dependent effects across each assay plate, Tukey’s two-way median polish was applied to fluorescence values after initial normalization, [36]. Tukey’s polish is an iterative subtraction of the median row and column values from each well’s given row or column. The procedure is repeated until sequential medians for each row and column are zero and positional gradients in fluorescence are eliminated.

[3] = system: skeletal muscle mitochondria; test: Mitochondrial membrane potential (ΔΨm, TMRM) powered by glutamate plus malate; format: biochemical, rat; settings: for ΔΨm (% change from DMSO): primary screen, ∼2.5 µM, average of duplicates, glutamate and malate; for ΔΨm with Glu + Mal + Nig (% change at 80 μM) / ΔΨm with Glu + Mal (% change at 80 μM): 5 mM glutamate, 5 mM malate; for ΔΨm with Glu + Mal + Nig (% change at 80 μM): with nigericin; for ΔΨm with Glu + Mal (% change at 80 μM): without nigericin
[4] = system: ubiquinone-binding site of complex I (site IQ); test: Site-specific H2O2 production from site IQ in skeletal muscle mitochondria; format: biochemical, rat; settings: 5 mM succinate; for IQ (% change from DMSO): primary screen, ∼2.5 µM, average of duplicates;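 for all read-outs here: H2O2 from superoxide detected by Amplex UltraRed fluorescence with added superoxide dismutase and horseradish peroxidase, endpoint read 30–40 min after substrate addition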
[5] = system: flavin mononucleotide site of complex I (site IF) plus matrix NAD-linked dehydrogenases (site IF/DH); test: Site-specific H2O2 production from site IF/DH in skeletal muscle mitochondria; format: biochemical, rat; settings: primary screen, ∼2.5 µM, average of duplicates
Experimental: as §1, §2

[6] = target: T3, flavin site of complex II (site IIF) (Rattus norvegicus, UniProt Q920L2); test: Site-specific H2O2 production from site IIF in skeletal muscle mitochondria; format: biochemical; settings: primary screen, ∼2.5 µM, average of duplicates; palmitoylcarnitine
T3 construct: from tissue; host or cells: skeletal muscle mitochondria
T3 sequence (Q920L2 35-656): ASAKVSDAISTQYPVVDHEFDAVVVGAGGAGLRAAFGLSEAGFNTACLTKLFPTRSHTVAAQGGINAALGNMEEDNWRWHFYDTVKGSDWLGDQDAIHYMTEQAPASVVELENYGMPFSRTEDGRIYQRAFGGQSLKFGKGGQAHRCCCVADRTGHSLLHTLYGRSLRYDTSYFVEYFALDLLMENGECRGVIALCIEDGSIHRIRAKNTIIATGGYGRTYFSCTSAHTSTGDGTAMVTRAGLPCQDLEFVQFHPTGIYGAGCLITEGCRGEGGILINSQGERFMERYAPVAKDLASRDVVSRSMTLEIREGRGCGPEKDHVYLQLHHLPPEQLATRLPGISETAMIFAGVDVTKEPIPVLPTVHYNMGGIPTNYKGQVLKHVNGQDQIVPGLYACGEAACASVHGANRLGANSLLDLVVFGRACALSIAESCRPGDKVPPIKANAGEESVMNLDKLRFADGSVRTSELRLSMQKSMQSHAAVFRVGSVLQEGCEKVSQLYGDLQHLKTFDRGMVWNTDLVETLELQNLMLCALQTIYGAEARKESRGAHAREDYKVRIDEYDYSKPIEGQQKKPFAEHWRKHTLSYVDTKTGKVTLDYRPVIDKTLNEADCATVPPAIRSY
T3 sequence (P21913 31-282 partner): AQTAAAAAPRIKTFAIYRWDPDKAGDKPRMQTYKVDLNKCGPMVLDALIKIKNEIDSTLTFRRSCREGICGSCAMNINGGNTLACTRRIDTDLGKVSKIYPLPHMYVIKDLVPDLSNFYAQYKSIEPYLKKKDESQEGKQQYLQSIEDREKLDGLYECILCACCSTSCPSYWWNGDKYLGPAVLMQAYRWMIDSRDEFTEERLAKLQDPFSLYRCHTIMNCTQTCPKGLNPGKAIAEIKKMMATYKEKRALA
T3 sequence (Q641Z9 30-169 partner limits assumed): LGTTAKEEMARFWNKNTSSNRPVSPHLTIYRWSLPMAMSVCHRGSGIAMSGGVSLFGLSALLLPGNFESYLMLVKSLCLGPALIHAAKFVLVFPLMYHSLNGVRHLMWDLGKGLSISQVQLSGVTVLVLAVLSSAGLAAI
T3 sequence (Q6PCT8 57-159 partner): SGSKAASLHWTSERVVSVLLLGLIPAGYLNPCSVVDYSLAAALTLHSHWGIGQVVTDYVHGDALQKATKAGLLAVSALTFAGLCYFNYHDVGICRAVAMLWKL
Experimental: as §1, §2

[7] = system: skeletal muscle mitochondria; test: Mitochondrial membrane potential (ΔΨm, TMRM) powered by glycerol phosphate; format: biochemical, rat; settings: 80 μM; 16.7 mM glycerol phosphate, 4 µM rotenone, nigericin

Row | mGPDH (% change from DMSO) [1] | IIIQo (% change from DMSO) [2] | IIF (% change from DMSO) [6] | IC50 [1] | inhibition at 80 µM [1] | Compound | ΔΨm (% change from DMSO) [3] | IQ (% change from DMSO) [4] | IF/DH (% change from DMSO) [5] | ΔΨm with Glu + Mal + Nig (% change at 80 μM) [3] | ΔΨm with Glu + Mal (% change at 80 μM) [3] | IQ H2O2 production with 5 mM Suc (% change at 80 μM) [4] | ΔΨm with GP + Nig (% change at 80 μM) [7]
1 | -12.4% | -15.9% | -0.354% | – | – | Cc1ccc(S(=O)(=O)CCC#N)cc1C [compound 5210670] | -0.074% | 0.4% | -4.6% | – | – | – | –
2 | -21.9% | -50.4% | -53.2% | – | – | Cc1ccc(S(=O)(=O)c2cc(O)ccc2O)cc1C [compound 5210729] | -0.6% | -40.9% | -32.6% | – | – | – | –
3 | -14.1% | -0.0236% | 1.3% | – | – | O=C(O)CSc1cccc(C(=O)Nc2ccc(Br)cc2)c1 [compound 5210767] | -0.00715% | -0.0908% | -0.5% | – | – | – | –
4 | -14.1% | -6.4% | -26.9% | – | – | CC(=O)c1c(C)n(-c2ccccc2)c2ccc(O)cc12 [compound 5215317] | 0.144% | -13.7% | -34.7% | – | – | – | –
5 | -29.8% | -8.8% | -44.3% | – | – | COc1ccc(C(=O)Nc2ccc(S(=O)(=O)Nc3nc(C)cc(C)n3)cc2)c(OC)c1 [compound 5219504] | 1.4% | -19.3% | -30.7% | – | – | – | –
6 | -22.7% | -20.2% | -32.9% | – | – | CC1(C)CC(=O)C2=C(C1)Nc1cc(Cl)ccc1S2 [compound 5219661] | -1.8% | -52.0% | -91.8% | – | – | – | –
7 | -23.3% | -23.3% | -49.0% | – | – | Cc1nc2ccc(Cl)cc2c2c(N)c3ccccc3n12 [compound 5219795] | 0.6% | -14.8% | -30.5% | – | – | – | –
8 | -31.6% | -36.6% | -51.0% | – | – | CC1=Nc2c([nH]c3ccccc23)-c2cc(C)ccc2N1.Cl [compound 5219818] | -0.5% | -50.1% | -40.2% | – | – | – | –
9 | -10.0% | -13.3% | -0.9% | – | – | CCCCSc1nnc2c(n1)[nH]c1ccc(C)cc12 [compound 5225633] | 1.1% | -2.4% | 16.4% | – | – | – | –
10 | -10.7% | -11.7% | -4.3% | – | – | CCC1CCCCN1C/C=C/c1ccc(N(C)C)cc1 (centres unmarked) [compound 5429735] | 0.3% | -0.0537% | -23.1% | – | – | – | –
11 | -29.7% | -33.8% | -24.5% | – | – | COc1ccc(CNc2cccc(N(C)C)c2)cc1 [compound 5452512] | 0.0119% | -34.0% | -33.7% | – | – | – | –
12 | -20.6% | -14.3% | -25.6% | – | – | COc1ccc(NCC2CCCCC2)cc1 [compound 5454631] | -0.00487% | -40.9% | -52.2% | – | – | – | –
13 | -20.2% | -17.4% | -27.6% | – | – | c1coc(CNc2ccc3c(c2)OCO3)c1 [compound 5457094] | 0.527% | -27.2% | -27.2% | – | – | – | –
14 | -26.4% | -8.4% | -28.0% | – | – | O=C(Nc1ccc(O)cc1)c1ccco1 [compound 5471987] | 0.0125% | -9.9% | -52.3% | – | – | – | –
15 | -12.9% | -4.7% | -11.9% | – | – | Cn1c(/C=C/c2ccc(Cl)cc2)nc2ccccc21 [compound 5663561] | 0.0494% | -3.9% | -9.1% | – | – | – | –
16 | -10.3% | -4.6% | -7.3% | – | – | Nc1nc(-c2ccc(Cl)c(Cl)c2)cs1 [compound 5690819] | 0.636% | -3.1% | -0.9% | – | – | – | –
17 | – | – | – | 15 µM | 50% | O=C(O)CCC(=O)Nc1ccc(-c2nc3ccccc3s2)cc1 [iGP-3] | – | – | – | 20% | 148% | -69% | -26%
18 | – | – | – | 5 µM | 69% | Cc1ccc2[nH]c(-c3ccc(NC(=O)CCC(=O)O)cc3)nc2c1 [iGP-4] | – | – | – | 11% | 49% | -20% | -35%
19 | – | – | – | 3 µM | 55% | O=C(O)CCC(=O)Nc1ccc(-c2nc3cc(C(=O)c4ccccc4)ccc3[nH]2)cc1 [iGP-6] | – | – | – | 17% | 93% | -28% | -59%
20 | – | – | – | – | 21% | O=C(O)CCC(=O)Nc1ccc(-c2nc3cc(NC(=O)CCC(=O)O)ccc3[nH]2)cc1 [iGP-7] | – | – | – | 2% | 25% | 3% | 4%
